Here are results for 12 compounds from ChEMBL document CHEMBL4376816, “Discovery of the Oral Leukotriene C4 Synthase Inhibitor (1S,2S)-2-({5-[(5-Chloro-2,4-difluorophenyl)(2-fluoro-2-methylpropyl)amino]-3-methoxypyrazin-2-yl}carbonyl)cyclopropanecarboxylic Acid (AZD9898) as a New Treatment for Asthma” (J Med Chem, 2019).

The source made the active and inactive calls. The calls are words filed in the database; no cut-off is given here.

The target of data set [1] is T1, Leukotriene C4 synthase (Homo sapiens, UniProt Q16873).
T1 sequence (Q16873 whole entry): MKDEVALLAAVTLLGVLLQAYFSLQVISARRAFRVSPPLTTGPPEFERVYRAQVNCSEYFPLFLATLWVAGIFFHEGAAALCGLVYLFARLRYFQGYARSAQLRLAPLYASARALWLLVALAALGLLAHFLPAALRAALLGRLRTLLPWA

The target in data set [2] is T2, Leukotriene C4 synthase (Homo sapiens) (UniProt Q16873).
T2 sequence (whole entry): T1 sequence (Q16873 whole entry)

The nature of data set [3]: Octanol/Sodium phosphate buffer partition coefficient, log D of compound at pH 7.4 at 1 mg incubated for overnight under shaking condition by LC-MS/MS analysis. Type of data set: physicochemical.
The nature of data set [4]: Intrinsic clearance in human hepatocytes at 1 uM assessed as per million cells after 2 to 60 mins by LC-MS/MS analysis. The note with it: read-out: CLH. Type of data set: ADME, cell-based, Hepatocyte.
Data set [5] deals with T2, Leukotriene C4 synthase (Homo sapiens). Briefly: Inhibition of LTC4S in healthy human whole blood assessed as inhibition of calcium ionophore A23187 stimulated cysteinyl leukotrienes production preincuabted for 30 mins followed by calcium ionophore stimulation and measured after 10 mins by LC-MS analysis. Type of data set: tissue-based.
The target is the same in data set [6]. Nature of the data set: Inhibition of LTC4S in asthmatic human whole blood assessed as inhibition of calcium ionophore A23187 stimulated cysteinyl leukotrienes production preincuabted for 30 mins followed by calcium ionophore stimulation and measured after 10 mins by LC-MS analysis. Type of data set: tissue-based.
In data set [7] the target is T1, Leukotriene C4 synthase. This is another data set of the same source.
A short description of data set [8]: Displacement of [3H]-GABA/[3]-muscimol from GABA gated chloride channel in Sprague-Dawley rat cortical synoptic membranes by liquid scintillation analysis. (In general: Displacement assays read how much labelled ligand stays bound in the presence of the test substance.)

`O=C(Nc1ccc(Cc2ccc(NC(=O)c3ccccc3)c(C(=O)O)c2)cc1C(=O)O)c1ccccc1` returned an IC50 in data set [1] of 1900 nM. Moreover, the inhibition result in data set [2] was “inactive”.

In turn, `COc1nc(C(=O)[C@@H]2C[C@H]2C(=O)O)ncc1N(CC1CC1)c1ccc(Cl)c2ccccc12` (relative stereo) registered a logD in data set [3] of 2.9. Also, the hepatocyte CLint at 1 µM in data set [4] turned out to be 15 µL/min/1e6 cells. Further, the IC50 in data set [1] came out at 15.5 nM.

On to `CC(c1cc2ccccc2s1)N(O)C(N)=O` (configuration not stated), for which the inhibition result in data set [5] and in data set [6] was “Active” in each case.

Take `COc1cc(N(CC(C)C)c2cc(C(F)(F)F)ccc2F)cnc1C(=O)[C@H]1C[C@@H]1C(=O)O`: in data set [3], the logD was found to be 1.4. Further, the hepatocyte CLint at 1 µM in data set [4] is 3.9 µL/min/1e6 cells. This compound gave an IC50 in data set [7] of 6.8 nM.

In data set [1], `COc1ccccc1C(=O)Nc1ccc(C(=O)c2ccc(N(C)c3ccc(Cl)cc3)cn2)cc1C(=O)O` displayed an IC50 of 35 nM.

`COc1nc(N(CC(C)(C)F)c2cc(C(F)(F)F)ccc2F)cnc1C(=O)[C@H]1C[C@@H]1C(=O)O` came in with a logD in data set [3] of 1.2. The hepatocyte CLint at 1 µM in data set [4] came to 1.5 µL/min/1e6 cells. The compound also came in with an IC50 in data set [7] of 7.8 nM.

With `COc1nc(N(CC(C)C)c2cc(Cl)c(F)cc2F)cnc1C(=O)[C@H]1C[C@@H]1C(=O)O`, the logD in data set [3] was found to be 1.8. For the same compound, the hepatocyte CLint at 1 µM in data set [4] was found to be 3 µL/min/1e6 cells. In addition, the IC50 worked out at 0.28 nM in data set [1] and 4.1 nM in data set [7].

In data set [3], `COc1cc(N(CC2CC2)c2cc(Cl)c(F)cc2F)cnc1C(=O)[C@H]1C[C@@H]1C(=O)O` yielded a logD of 1.1. Further, in data set [4], the hepatocyte CLint at 1 µM was less than 1.5 µL/min/1e6 cells. This compound registered an IC50 in data set [8] of 5400 nM.

As for `COc1nc(N(CC(C)C)c2cc(C(F)(F)F)ccc2F)cnc1C(=O)[C@H]1C[C@@H]1C(=O)O`, the logD in data set [3] was determined as 2. For the same compound, the hepatocyte CLint at 1 µM in data set [4] was 2.9 µL/min/1e6 cells. Also, the IC50 in data set [1] was 0.36 nM; in data set [7], 3.5 nM.

`COc1nc(C(=O)[C@H]2C[C@@H]2C(=O)O)ncc1N(CC1CC1)c1cccc2ccccc12` had an IC50 in data set [1] of 2.4 nM.

As to `CCCN(c1cccc(C(F)(F)F)c1)c1cnc(C(=O)[C@H]2C[C@@H]2C(=O)O)c(OC)c1`, in data set [3], the logD is 1.2. In addition, the hepatocyte CLint at 1 µM in data set [4] was found to be 7.2 µL/min/1e6 cells. In data set [8], the IC50 was 19000 nM.

In turn, `COc1cc(N(CC2CC2)c2ccc(F)c(Cl)c2)cnc1C(=O)[C@H]1C[C@@H]1C(=O)O` returned a logD in data set [3] of 1.2. Moreover, in data set [4], the hepatocyte CLint at 1 µM is 3.1 µL/min/1e6 cells. The compound further returned an IC50 in data set [8] of 3000 nM.

The term IC50 denotes the concentration that inhibits the measured activity by half. A lower IC50 goes with higher potency. As usually defined, the logD is lipophilicity at a set pH, counting ionised and neutral species.
